The values that follow come from ChEMBL document CHEMBL1201862, “PubChem BioAssay data set” (2004).

One may read the GI50 as the concentration that inhibits growth by half.

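Cultured in 96-well plates, cells were exposed to test compound for 48 hours across five concentrations. GI50: concentration for 50% inhibition of growth.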 The source made the active and inactive calls. Cut-off read from the data, not from the text of the source: active = GI50 up to about 1.1 µM and inactive = higher.

Test systems include HCC 2998; EKVX; RPMI-8226; NCI-H23; ACHN; A498; DMS-114; HCT-15; HT-29; IGROV-1; SNB-19; SK-MEL-5; U-251; DMS-273; LXFL 529; OVCAR-5.
Assay in all cases: DTP human tumour cell line panel, 48 h

`CCCc1c(C(=O)OCC)[nH]c(C(=O)CCC(=O)c2[nH]c(C(=O)OCC)c(CCC)c2C(=O)OCC)c1C(=O)OCC`: the GI50 in the assay with HCC 2998, in the assay on EKVX, in the assay with RPMI-8226, with NCI-H23, in the assay on ACHN and in the assay with A498 was > 100 µM (inactive) throughout. Moreover, the GI50 in the assay on DMS-114 is > 100 µM (inactive); with HCT-15, over 100 µM; in the assay with HT-29, > 100 µM (inactive); in the assay with IGROV-1, > 100 µM (inactive); in the assay with SNB-19, > 100 µM (inactive); in the assay on SK-MEL-5 it was > 100 µM (inactive). Further, the GI50 was > 100 µM (inactive) in the assay on U-251, 84.5 µM (inactive) in the assay on DMS-273, > 100 µM (inactive) in the assay on LXFL 529 and > 100 µM (inactive) in the assay on OVCAR-5.
With `CCOc1ccc(NC(=O)C2=C(C)NC(C)=C(C(=O)Nc3ccc(OCC)cc3)C2c2ccccc2)cc1`, the GI50 is > 100 µM (inactive) in the assay on HCC 2998; > 100 µM (inactive) in the assay with EKVX; 49.9 µM (inactive) in the assay with RPMI-8226; > 100 µM (inactive) with NCI-H23; 74.6 µM (inactive) in the assay on ACHN; > 100 µM (inactive) in the assay on A498. Also, the GI50 in the assay on DMS-114 was 44.2 µM (inactive); with HT-29 it was > 100 µM (inactive); with IGROV-1, > 100 µM (inactive); in the assay with SNB-19, > 100 µM (inactive); in the assay with SK-MEL-5, 74.3 µM (inactive); in the assay on U-251, > 100 µM (inactive). Moreover, the GI50 with DMS-273 is > 100 µM (inactive); with LXFL 529, 51.3 µM (inactive); in the assay with OVCAR-5, > 100 µM (inactive).
For `Cc1ccc(S(=O)(=O)SCc2ccccc2CSS(=O)(=O)c2ccc(C)cc2)cc1`, the GI50 in the assay on HCC 2998 was 75.2 µM (inactive); in the assay on EKVX, 44.4 µM (inactive); in the assay on RPMI-8226 it was 17.5 µM (inactive); in the assay on NCI-H23 it was 18.8 µM (inactive); in the assay on ACHN it was 29 µM (inactive); with A498, 91.2 µM (inactive). The GI50 in the assay with DMS-114 was 70.8 µM (inactive); with HCT-15 it was 19.5 µM; in the assay on HT-29, 22.7 µM (inactive); in the assay on IGROV-1, > 100 µM (inactive); in the assay on SNB-19, > 100 µM (inactive); in the assay on SK-MEL-5, 59.4 µM (inactive). Besides, the GI50 is 28.6 µM (inactive) with U-251, 21.1 µM (inactive) in the assay with DMS-273, 15.5 µM (inactive) in the assay on LXFL 529 and > 10 µM (inactive) in the assay on OVCAR-5.
Consider `N#CCc1ccc(C(C#N)/C(CCCC(=O)Nc2cccc([N+](=O)[O-])c2)=N/NC(N)=S)cc1` (stereo unspecified), for which the GI50 was > 100 µM (inactive) in the assay on HCC 2998; 36.6 µM (inactive) with EKVX; > 100 µM (inactive) with RPMI-8226; > 100 µM (inactive) in the assay with NCI-H23; > 100 µM (inactive) with ACHN; > 100 µM (inactive) with A498. The GI50 in the assay on DMS-114 is 99.1 µM (inactive); in the assay on HCT-15, over 100 µM; in the assay on HT-29, > 100 µM (inactive); in the assay with IGROV-1, > 100 µM (inactive); with SNB-19, 76 µM (inactive); in the assay with SK-MEL-5 it was > 100 µM (inactive). The GI50 with U-251 is > 100 µM (inactive); in the assay with DMS-273, > 100 µM (inactive); in the assay on LXFL 529 it was 92 µM (inactive); with OVCAR-5 it was > 100 µM (inactive).
Regarding `N#CC(C#N)C(c1ccccc1)c1ccccc1`, the GI50 was > 100 µM (inactive) in the assay on HCC 2998; > 100 µM (inactive) with RPMI-8226; > 100 µM (inactive) with ACHN; > 100 µM (inactive) in the assay on A498; 70.8 µM (inactive) in the assay with DMS-114; over 100 µM in the assay on HCT-15. The GI50 in the assay on IGROV-1, in the assay with SNB-19, with SK-MEL-5, with U-251, in the assay on DMS-273 and in the assay with LXFL 529 was > 100 µM (inactive) in each case. The GI50 with OVCAR-5 is > 100 µM (inactive).
As to `CCN(CC)C(=O)COc1ccc(Br)cc1Br`, the GI50 is > 100 µM (inactive) in the assay on HCC 2998; 7.91 µM (inactive) with EKVX; > 100 µM (inactive) in the assay with RPMI-8226; 82.6 µM (inactive) in the assay on NCI-H23; > 100 µM (inactive) with ACHN; > 100 µM (inactive) in the assay on A498. The GI50 in the assay on DMS-114 is > 100 µM (inactive); in the assay with HCT-15, over 100 µM; with HT-29 it was > 100 µM (inactive); in the assay with SNB-19, > 100 µM (inactive); with SK-MEL-5, > 100 µM (inactive); in the assay with U-251 it was > 100 µM (inactive). Also, the GI50 with DMS-273, in the assay on LXFL 529 and in the assay on OVCAR-5 was > 100 µM (inactive) each time.
For `COc1cccc(NC(=O)C(=O)C(C(C)=O)c2nc3ccc(Cl)cc3nc2O)c1` (stereo unspecified), the GI50 with HCC 2998, in the assay with EKVX, with RPMI-8226, in the assay with NCI-H23, in the assay with ACHN and with A498 was > 100 µM (inactive) each time. Further, the GI50 was > 100 µM (inactive) in the assay on DMS-114; over 100 µM with HCT-15; > 100 µM (inactive) in the assay on HT-29; > 100 µM (inactive) in the assay on IGROV-1; > 100 µM (inactive) in the assay on SNB-19; > 100 µM (inactive) in the assay with SK-MEL-5. Moreover, the GI50 in the assay with U-251, with DMS-273, with LXFL 529 and in the assay with OVCAR-5 was > 100 µM (inactive) throughout.
As to `O=C1CCC(=O)c2sccc2N1`, the GI50 in the assay with HCC 2998, with EKVX, in the assay on RPMI-8226, in the assay on NCI-H23, in the assay with ACHN and in the assay with A498 was > 100 µM (inactive) in each case. Further, the GI50 is > 100 µM (inactive) with DMS-114; over 100 µM with HCT-15; > 100 µM (inactive) in the assay with HT-29; > 100 µM (inactive) in the assay with IGROV-1; > 100 µM (inactive) in the assay on SNB-19; > 100 µM (inactive) in the assay on SK-MEL-5. Moreover, the GI50 with U-251, in the assay on DMS-273, with LXFL 529 and in the assay on OVCAR-5 was > 100 µM (inactive) each time.
Take `Nc1ncnc2c1nnn2C1C=C(CO)C(O)C1O` (stereo unspecified): the GI50 in the assay with HCC 2998 is 22.5 µM (inactive); in the assay with EKVX, > 100 µM (inactive); in the assay with RPMI-8226, 20.3 µM (inactive); with NCI-H23, > 78.9 µM (inactive); with ACHN it was > 53.5 µM (inactive); in the assay with A498 it was > 100 µM (inactive). Besides, the GI50 with DMS-114 is 44.5 µM (inactive); with HCT-15 it was 26.6 µM; with HT-29, 35.3 µM (inactive); with IGROV-1, > 100 µM (inactive); in the assay with SNB-19, > 100 µM (inactive); in the assay on SK-MEL-5, > 100 µM (inactive). Also, the GI50 is > 100 µM (inactive) with U-251, 44 µM (inactive) in the assay with DMS-273, > 100 µM (inactive) in the assay with LXFL 529 and 48.3 µM (inactive) in the assay with OVCAR-5.
As to `CC1(C)CCC[C@@]2(C)C1CCC1(C)C(CCc3ccoc3)/C(=C/OS(=O)(=O)O)CCC12` (stereo partly specified), the GI50 in the assay with HCC 2998 is > 100 µM (inactive); in the assay on EKVX, > 100 µM (inactive); in the assay with RPMI-8226, 33.7 µM (inactive); with NCI-H23, 50.4 µM (inactive); in the assay with ACHN, > 100 µM (inactive); with A498 it was > 100 µM (inactive). Also, the GI50 with DMS-114 was 34.6 µM (inactive); in the assay with HCT-15, 49.5 µM; in the assay on HT-29, 40.9 µM (inactive); in the assay with IGROV-1 it was > 100 µM (inactive); in the assay with SNB-19 it was > 100 µM (inactive); with SK-MEL-5, > 100 µM (inactive). Moreover, the GI50 in the assay on U-251 is 57.5 µM (inactive); in the assay with DMS-273, > 100 µM (inactive); in the assay on LXFL 529, 50 µM (inactive); with OVCAR-5, > 100 µM (inactive).
Regarding `CN(C)c1ccc(-c2nc(N)nc3c2CCCC3)cc1`, the GI50 with HCC 2998 is 80 µM (inactive); with EKVX it was 28.4 µM (inactive); in the assay with RPMI-8226, 30 µM (inactive); with NCI-H23, 64.7 µM (inactive); with ACHN, 26.4 µM (inactive); with A498, 35.6 µM (inactive). In addition, the GI50 in the assay on DMS-114 was 38.5 µM (inactive); with IGROV-1, 64.4 µM (inactive); in the assay with SNB-19, > 100 µM (inactive); in the assay on SK-MEL-5 it was 34.7 µM (inactive); in the assay on U-251, 53.7 µM (inactive); in the assay on DMS-273, 50.2 µM (inactive). Moreover, the GI50 in the assay with LXFL 529 is 63.8 µM (inactive); in the assay with OVCAR-5 it was > 100 µM (inactive).
For `O=C(N/C(=C\c1ccccc1O)c1nc2ccccc2[nH]1)c1ccccc1`, the GI50 in the assay on HCC 2998 is > 100 µM (inactive); in the assay on EKVX, 37.8 µM (inactive); in the assay with RPMI-8226, > 100 µM (inactive); in the assay on NCI-H23 it was 40.6 µM (inactive); in the assay with ACHN it was 73.8 µM (inactive); in the assay on A498 it was 62.4 µM (inactive). For the same compound, the GI50 with DMS-114 is 41.5 µM (inactive); with HCT-15, over 100 µM; with HT-29, > 100 µM (inactive); in the assay on IGROV-1, > 100 µM (inactive); in the assay on SNB-19, 39.7 µM (inactive); in the assay with SK-MEL-5 it was 95.7 µM (inactive). In addition, the GI50 in the assay with U-251 was > 100 µM (inactive); with DMS-273 it was 56.6 µM (inactive); in the assay with LXFL 529, 51.2 µM (inactive); in the assay on OVCAR-5, > 100 µM (inactive).
Regarding `O=C(Cc1ccccc1)NN1C(=O)C(Cl)C1c1ccccc1Cl` (stereo unspecified), the GI50 in the assay with HCC 2998 is > 100 µM (inactive); with EKVX it was > 100 µM (inactive); in the assay with RPMI-8226, 19.5 µM (inactive); in the assay on NCI-H23 it was 64.1 µM (inactive); in the assay on ACHN, > 100 µM (inactive); with A498, > 100 µM (inactive). In addition, the GI50 in the assay with DMS-114 is 32.6 µM (inactive); in the assay with HCT-15 it was over 92.9 µM; in the assay on HT-29, > 94.2 µM (inactive); in the assay on IGROV-1 it was 39 µM (inactive); in the assay with SNB-19, > 100 µM (inactive); with SK-MEL-5, > 72.6 µM (inactive). Also, the GI50 with U-251 is 44.1 µM (inactive); in the assay on DMS-273, 72.8 µM (inactive); in the assay with LXFL 529, 33.6 µM (inactive); in the assay with OVCAR-5 it was > 100 µM (inactive).
